Measurements published in patent US7709514B2, “Therapeutic molecules and methods-1” (Cortical Pty Ltd, priority 2002, dated 2010).
Like-named read-outs stand apart in the source and are kept apart here.

Legend:
[1] = test system: murine antigen induced arthritis; assay: murine antigen-induced arthritis, histological score; assay type: in vivo, mice; conditions: 15 mg/kg IP once per 24 hours, day 28
Protocol: Antigen-induced arthritis was induced in mice. C57BL6/J male mice, aged 7-10 weeks old, were immunized on day 0 with 200 μg methylated BSA (mBSA) emulsified in 200 μl of Freund's complete adjuvant (FCA) injected subcutaneously into the flank skin. Mice were treated with compound 5, administered by intraperitoneal injection, once per 24 hours at a dose of 15 mg/kg body weight. After seven days, mice received 100 μg mBSA and 100 μl FCA by intradermal injection at the base of the tail. After a further 14 days, arthritis was induced by intra-articular injection of 30 μg mBSA in 10 μl of sterile saline into the left knee, the right knee being injected with sterile saline alone.
Arthritis was analysed histologically at day 28 after first immunisation. Knee joints were dissected and fixed in 10% buffered formalin for 7 days. Fixed tissues were decalcified for 3 weeks in 15% ethylene-diamine-tetra-acetic acid (EDTA), dehydrated and embedded in paraffin. Sagittal sections (5 μm) of the knee joint were stained with Safranin-O and counterstained with fast green/iron hematoxylin. Histological sections were scored from 0 to 3 for four parameters: Synovitis was defined as hyper-cellularity of the synovium including pannus formation. Joint space exudate was identified as leukocytes, discretely or in aggregates, in the joint space. Cartilage degradation was defined as the loss of Safranin-O staining of articular cartilage (0=full stained cartilage, 3=totally unstained cartilage). Bone damage was defined as the extent and depth of the subchondral bone invasion by pannus. A total score was also generated from the sum of these four parameters (maximum 12).

[2] = test system: murine peritoneal macrophage cytokine production; assay: inhibition of peritoneal macrophage cytokine production (ELISA); assay type: cell-based, mice; conditions: Mus musculus
Protocol: C57BL6/J male mice were injected intraperitoneally with 2 ml of thioglycollate. Five (5) days later peritoneal macrophages were collected by lavaging the peritoneum of anaesthetized mice with 3 ml of cold Hanks buffered saline solution. Cells from several mice were pooled, washed and re-suspended in DMEM supplemented with 5% FCS. Cells were plated in 96 well plastic tissue culture plates at 1×10^5 cells/well. Cells were treated with compound or vehicle for 1 hour in a 5% CO2 incubator at 37° C. Cells were then treated with LPS (10-100 ng/ml) or recombinant human interferon-γ (10 units/ml) and incubated for 24 hours. After 24 hours, 50 μl of supernatant from each well was carefully removed and transferred to ELISA plates. The concentration of interleukin 1 (IL-1) or interleukin 6 (IL-6) was measured by ELISA. The concentration of compound at which LPS- or interferon-γ-induced cytokine release was suppressed by 50% compared to vehicle-only-treated cells (EC50) was calculated using Prism® software. Table 9 lists the EC50 for two compounds tested in this assay.

[3] = test system: IL-1 induced phosphorylation of ERK; assay: IL-1 induced phosphorylation (activation) of ERK, Western blotting; assay type: cell-based, human; conditions: compound 5 50 μM alone; S112 cells, IL-1 0.1 ng/ml, 30 minutes
Protocol: S112 human dermal fibroblasts cultured in RPMI (serum-free) medium were stimulated with recombinant human IL-1 0.1 ng/ml, as described herein, for 30 minutes, with or without the addition of dexamethasone 10^−9M or benzimidazol-2-one-5-pentanoate (compound 5) (50 μM). The phosphorylation (activation) of ERK was assessed using Western blotting with a mAb specific for the phosphorylated (activated) form of ERK. In brief, cells were disrupted by repeated aspiration through a 21-gauge needle. After incubation on ice for 10 min and microcentrifugation at 3000 rpm for 15 min (4° C.), the supernatants were removed, the protein concentration was determined, and the lysates were stored at −80° C. Equal amounts of cellular proteins were fractionated on 10% SDS-polyacrylamide electrophoresis gels and transferred to polyvinylidene difluoride membranes. Immunoblotting was performed using antibodies directed against phospho-p44/42 (ERK) and total p44142 according to the manufacturer's instructions. The intensity of ERK activation is proportional to the size and optical density (darkness) of the resulting blots. Total ERK blots serve as a loading control, such that changes in phosphorylated ERK represent changes in phosphorylation and not in total ERK protein.

[4] = test system: IL-1-induced proliferation of human rheumatoid arthritis FLS; assay: inhibition of human rheumatoid arthritis synovial fibroblast proliferation; assay type: cell-based
Protocol: Fibroblast-like synoviocytes (FLS) were obtained from synovium of rheumatoid (RA) patients undergoing joint replacement surgery and prepared according to Lacey et al (26). FLS were isolated using enzyme digestion and cultured in RPMI/10% fetal calf serum (FCS) as previously described. A single cell suspension was obtained by digesting minced synovial tissue with 2.4 mg/ml Dispase (grade II, 5 U/mg) 1 mg/ml collagenase (type II) and DNase (type 1). FLS were propagated in 10 cm culture plates in RPMI supplemented with 10% FCS at 37° C. in a 5% CO2 humidified incubator. Cells beyond 3rd passage were more than 99% CD45−. Cells were used between passages 4 and 9. Cells from four individual human RA donor FLS used.
To determine the effect of compound 5 on FLS proliferation, DNA synthesis was measured by [^3H] thymidine incorporation. FLS were seeded overnight at 0.5×10^5 cells per well in 24 well tissue culture plates in RPMI/10% FCS. Cell growth was synchronised by culturing FLS in RPMI/0.1% bovine serum albumin for 24 h. […] FLS were detached using Trypsin-EDTA, harvested using a cell harvester, and the radioactivity incorporated into DNA determined using a Wallac 1409 liquid scintillation counter. Results were expressed as the percentage of control (untreated) cell proliferation, and the mean±SEM of four experiments calculated.

## CCCCCOC(=O)c1ccc2[nH]c(=O)[nH]c2c1 [Compound 5]
[1]; FIG. 10a, p=0.0024
  total arthritis score: statistically significant reduction
[1]; FIG. 10b
  severity of all individual parameters of arthritis: Statistically significant reductions
[2]; [LPS] 10 ng/mL, read-out: EC50, IL-1 release
  EC50: 0.075 µM
[2]; [LPS] 100 ng/mL, read-out: EC50, IL-6 release
  EC50: 17.7 µM
[3]
  ERK activation by IL-1: not inhibited
[4]; IL-1β 0.1 ng/ml + compound 5 50 μM, mean±SEM of four experiments, IL-1 + vehicle 156 ± 32
  FLS proliferation, percentage of control (untreated) cell proliferation: 18 ± 6 percentage of control
[4]; compound 5 50 μM
  IL-1-induced FLS proliferation: marked and statistically significant inhibition
